Experimental data as given in patent US7119075B2, “Use of herbal agents for potentiation of bioefficacy of anti infectives” (priority 2003, dated 2006).

Experiments:
Assay in all cases: Inhibitory effect of bioenhancers alone
Format in all cases: cell-based
[1] = system: Staphylococcus aureus ATCC 29313; settings: Staphylococcus aureus, ATCC29313
[2] = system: Methicillin Resistant Staphylococcus aureus (MRSA); settings: Staphylococcus aureus, MRSA
[3] = system: Staphylococcus epidermidis ATCC 12228; settings: Staphylococcus epidermidis, ATCC12228
[4] = system: Staphylococcus hemolyticus ATCC 29978; settings: Staphylococcus, ATCC29978
[5] = system: Bacillus cereus RRL 02; settings: Bacillus cereus, RRL02
[6] = system: Escherichia coli ATCC 25922; settings: Escherichia coli, ATCC25922
[7] = system: Salmonella typhi AIIMS 2; settings: Salmonella enterica, TYPHI, read-out: inhibitory effect
[8] = system: Klebsiella pneumoniae ATCC 75388; settings: Klebsiella pneumoniae, ATCC75388
[9] = system: Pseudomonas aeruginosa ATCC 27583; settings: Pseudomonas aeruginosa, ATCC27583
[10] = system: Candida tropicalis ATCC 750; settings: Candida tropicalis, ATCC750
[11] = system: Candida krusei ATCC 6258; settings: Pichia kudriavzevii, ATCC6258
[12] = system: Aspergillus flavus MTCC 1973; settings: Aspergillus flavus, MTCC1973
[13] = system: Aspergillus fumigatus SI-1; settings: Aspergillus fumigatus, SI1
[14] = system: Mycobacterium tuberculosis H37Rv; settings: Mycobacterium tuberculosis, H37RV, read-out: inhibitory effect
[15] = system: Mycobacterium tuberculosis 615; settings: Mycobacterium tuberculosis, 615
[16] = system: Mycobacterium avium ATCC 49601; settings: Mycobacterium avium, ATCC49601
[17] = system: Mycobacterium intracelluare ATCC 13950; settings: Mycobacterium, ATCC13950

## O=C(/C=C/C=C/c1ccc2c(c1)OCO2)N1CCCCC1 [piperine]
[1]; conc. 0.2 μg/ml
  inhibition at 0.2 µg/mL: 0%
[1]; conc. 0.8 μg/ml
  inhibition at 0.8 µg/mL: 0%
[1]; conc. 3.12 μg/ml
  inhibition at 3.12 µg/mL: 0%
[1]; conc. 12.5 μg/ml
  inhibition at 12.5 µg/mL: 0%
[1]; conc. 50 μg/ml
  inhibition at 50 µg/mL: 0%
[1]; conc. 100 μg/ml
  inhibition at 100 µg/mL: 20%
[2]; conc. 0.2 μg/ml
  inhibition at 0.2 µg/mL: 0%
[2]; conc. 0.8 μg/ml
  inhibition at 0.8 µg/mL: 0%
[2]; conc. 3.12 μg/ml
  inhibition at 3.12 µg/mL: 0%
[2]; conc. 12.5 μg/ml
  inhibition at 12.5 µg/mL: 0%
[2]; conc. 50 μg/ml
  inhibition at 50 µg/mL: 0%
[2]; conc. 100 μg/ml
  inhibition at 100 µg/mL: 20%
[3]; conc. 0.2 μg/ml
  inhibition at 0.2 µg/mL: 0%
[3]; conc. 0.8 μg/ml
  inhibition at 0.8 µg/mL: 0%
[3]; conc. 3.12 μg/ml
  inhibition at 3.12 µg/mL: 0%
[3]; conc. 12.5 μg/ml
  inhibition at 12.5 µg/mL: 0%
[3]; conc. 50 μg/ml
  inhibition at 50 µg/mL: 20%
[3]; conc. 100 μg/ml
  inhibition at 100 µg/mL: 50%
[4]; conc. 0.2 μg/ml
  inhibition at 0.2 µg/mL: 0%
[4]; conc. 0.8 μg/ml
  inhibition at 0.8 µg/mL: 0%
[4]; conc. 3.12 μg/ml
  inhibition at 3.12 µg/mL: 0%
[4]; conc. 12.5 μg/ml
  inhibition at 12.5 µg/mL: 0%
[4]; conc. 50 μg/ml
  inhibition at 50 µg/mL: 20%
[4]; conc. 100 μg/ml
  inhibition at 100 µg/mL: 50%
[5]; conc. 0.2 μg/ml
  inhibition at 0.2 µg/mL: 0%
[5]; conc. 0.8 μg/ml
  inhibition at 0.8 µg/mL: 0%
[5]; conc. 3.12 μg/ml
  inhibition at 3.12 µg/mL: 0%
[5]; conc. 12.5 μg/ml
  inhibition at 12.5 µg/mL: 0%
[5]; conc. 50 μg/ml
  inhibition at 50 µg/mL: 0%
[5]; conc. 100 μg/ml
  inhibition at 100 µg/mL: 0%
[6]; conc. 0.2 μg/ml
  inhibition at 0.2 µg/mL: 0%
[6]; conc. 0.8 μg/ml
  inhibition at 0.8 µg/mL: 0%
[6]; conc. 3.12 μg/ml
  inhibition at 3.12 µg/mL: 0%
[6]; conc. 12.5 μg/ml
  inhibition at 12.5 µg/mL: 0%
[6]; conc. 50 μg/ml
  inhibition at 50 µg/mL: 0%
[6]; conc. 100 μg/ml
  inhibition at 100 µg/mL: 0%
[7]
  inhibition at 0.2 µg/mL: 0%
  inhibition at 0.8 µg/mL: 0%
  inhibition at 3.12 µg/mL: 0%
  inhibition at 12.5 µg/mL: 0%
  inhibition at 50 µg/mL: 0%
  inhibition at 100 µg/mL: 0%
[8]; conc. 0.2 μg/ml
  inhibition at 0.2 µg/mL: 0%
[8]; conc. 0.8 μg/ml
  inhibition at 0.8 µg/mL: 0%
[8]; conc. 3.12 μg/ml
  inhibition at 3.12 µg/mL: 0%
[8]; conc. 12.5 μg/ml
  inhibition at 12.5 µg/mL: 0%
[8]; conc. 50 μg/ml
  inhibition at 50 µg/mL: 0%
[8]; conc. 100 μg/ml
  inhibition at 100 µg/mL: 0%
[9]; conc. 0.2 μg/ml
  inhibition at 0.2 µg/mL: 0%
[9]; conc. 0.8 μg/ml
  inhibition at 0.8 µg/mL: 0%
[9]; conc. 3.12 μg/ml
  inhibition at 3.12 µg/mL: 0%
[9]; conc. 12.5 μg/ml
  inhibition at 12.5 µg/mL: 0%
[9]; conc. 50 μg/ml
  inhibition at 50 µg/mL: 0%
[9]; conc. 100 μg/ml
  inhibition at 100 µg/mL: 0%
[10]; conc. 0.2 μg/ml
  inhibition at 0.2 µg/mL: 0%
[10]; conc. 0.8 μg/ml
  inhibition at 0.8 µg/mL: 0%
[10]; conc. 3.12 μg/ml
  inhibition at 3.12 µg/mL: 0%
[10]; conc. 12.5 μg/ml
  inhibition at 12.5 µg/mL: 0%
[10]; conc. 50 μg/ml
  inhibition at 50 µg/mL: 0%
[10]; conc. 100 μg/ml
  inhibition at 100 µg/mL: 20%
[11]; conc. 0.2 μg/ml
  inhibition at 0.2 µg/mL: 0%
[11]; conc. 0.8 μg/ml
  inhibition at 0.8 µg/mL: 0%
[11]; conc. 3.12 μg/ml
  inhibition at 3.12 µg/mL: 0%
[11]; conc. 12.5 μg/ml
  inhibition at 12.5 µg/mL: 0%
[11]; conc. 50 μg/ml
  inhibition at 50 µg/mL: 0%
[11]; conc. 100 μg/ml
  inhibition at 100 µg/mL: 20%
[12]; conc. 0.2 μg/ml
  inhibition at 0.2 µg/mL: 0%
[12]; conc. 0.8 μg/ml
  inhibition at 0.8 µg/mL: 0%
[12]; conc. 3.12 μg/ml
  inhibition at 3.12 µg/mL: 0%
[12]; conc. 12.5 μg/ml
  inhibition at 12.5 µg/mL: 0%
[12]; conc. 50 μg/ml
  inhibition at 50 µg/mL: 20%
[12]; conc. 100 μg/ml
  inhibition at 100 µg/mL: 50%
[13]; conc. 0.2 μg/ml
  inhibition at 0.2 µg/mL: 0%
[13]; conc. 0.8 μg/ml
  inhibition at 0.8 µg/mL: 0%
[13]; conc. 3.12 μg/ml
  inhibition at 3.12 µg/mL: 0%
[13]; conc. 12.5 μg/ml
  inhibition at 12.5 µg/mL: 0%
[13]; conc. 50 μg/ml
  inhibition at 50 µg/mL: 20%
[13]; conc. 100 μg/ml
  inhibition at 100 µg/mL: 50%
[14]
  inhibition at 0.2 µg/mL: 0%
  inhibition at 0.8 µg/mL: 0%
  inhibition at 3.12 µg/mL: 0%
  inhibition at 12.5 µg/mL: 0%
  inhibition at 50 µg/mL: 0%
  inhibition at 100 µg/mL: 0%
[15]; conc. 0.2 μg/ml
  inhibition at 0.2 µg/mL: 0%
[15]; conc. 0.8 μg/ml
  inhibition at 0.8 µg/mL: 0%
[15]; conc. 3.12 μg/ml
  inhibition at 3.12 µg/mL: 0%
[15]; conc. 12.5 μg/ml
  inhibition at 12.5 µg/mL: 0%
[15]; conc. 50 μg/ml
  inhibition at 50 µg/mL: 0%
[15]; conc. 100 μg/ml
  inhibition at 100 µg/mL: 0%
[16]; conc. 0.2 μg/ml
  inhibition at 0.2 µg/mL: 0%
[16]; conc. 0.8 μg/ml
  inhibition at 0.8 µg/mL: 0%
[16]; conc. 3.12 μg/ml
  inhibition at 3.12 µg/mL: 0%
[16]; conc. 12.5 μg/ml
  inhibition at 12.5 µg/mL: 0%
[16]; conc. 50 μg/ml
  inhibition at 50 µg/mL: 0%
[16]; conc. 100 μg/ml
  inhibition at 100 µg/mL: 0%
[17]; conc. 0.2 μg/ml
  inhibition at 0.2 µg/mL: 0%
[17]; conc. 0.8 μg/ml
  inhibition at 0.8 µg/mL: 0%
[17]; conc. 3.12 μg/ml
  inhibition at 3.12 µg/mL: 0%
[17]; conc. 12.5 μg/ml
  inhibition at 12.5 µg/mL: 0%
[17]; conc. 50 μg/ml
  inhibition at 50 µg/mL: 0%
[17]; conc. 100 μg/ml
  inhibition at 100 µg/mL: 0%
